Source: PubChem BioAssay (NCI)
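Exposure lasted 48 hours, with cells grown in 96-well plates and compounds tested at five concentrations. GI50 is the concentration that inhibits growth by half. TGI denotes the concentration required for complete inhibition of growth.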

Legend:
Test in all cases: DTP human tumour cell line panel, 48 h
[1] = test system: HCT-116 colon
[2] = test system: DU-145 prostate
[3] = test system: NCI-H23 lung
[4] = test system: MDA-MB-435
[5] = test system: RPMI-8226 leukemia
[6] = test system: RXF 393 renal
[7] = test system: CAKI-1 renal
[8] = test system: NCI-H522 lung
[9] = test system: MDA-MB-231 breast
[10] = test system: SW-620 colon
[11] = test system: MDA-N
[12] = test system: SK-MEL-28 melanoma
[13] = test system: TK-10 renal
[14] = test system: A498 renal
[15] = test system: NCI-H460 lung
[16] = test system: BT-549 breast
[17] = test system: ACHN renal
[18] = test system: T-47D breast
[19] = test system: OVCAR-8 ovarian
[20] = test system: HCT-15 colon
[21] = test system: MALME-3M melanoma
[22] = test system: UO-31 renal
[23] = test system: HL-60(TB) leukemia
[24] = test system: PC-3 prostate
[25] = test system: NCI/ADR-RES ovarian
[26] = test system: HOP-92 NSCLC
[27] = test system: SN12C renal
[28] = test system: SNB-75 CNS
[29] = test system: EKVX NSCLC
[30] = test system: OVCAR-5 ovarian
[31] = test system: MOLT-4 leukemia
[32] = test system: MCF7 breast
[33] = test system: SF-295 CNS
[34] = test system: M14 melanoma
[35] = test system: LOX IMVI melanoma
[36] = test system: SF-268 CNS
[37] = test system: SK-MEL-2 melanoma
[38] = test system: OVCAR-3 ovarian
[39] = test system: SF-539 CNS
[40] = test system: CCRF-CEM leukemia
[41] = test system: COLO 205 colon
[42] = test system: K-562 leukemia
[43] = test system: SR leukemia
[44] = test system: A549 NSCLC
[45] = test system: SK-MEL-5 melanoma
[46] = test system: HS 578T breast
[47] = test system: UACC-257 melanoma
[48] = test system: SNB-19 CNS
[49] = test system: U251 CNS
[50] = test system: SK-OV-3 ovarian
[51] = test system: HCC-2998 colon
[52] = test system: 786-0 renal
[53] = test system: KM12 colon
[54] = test system: HT29 colon
[55] = test system: HOP-62 NSCLC
[56] = test system: IGROV1 ovarian
[57] = test system: UACC-62 melanoma

With CC(C)(C)[OH+][O-].[O-]c1ccc(Cl)cc1C=Nc1ccc(Cl)cc1[O-].[O]=[V] the GI50 [1] was 21.4 µM, the TGI [1] was 98.9 µM and the GI50 [2] was 16.5 µM. The TGI [2] was 54.2 µM, the GI50 [3] was 20.4 µM and the TGI [3] was 66.9 µM. For the same molecule, the GI50 [4] was 14.6 µM, the TGI [4] was > 100 µM and the GI50 [5] was 6.97 µM. The TGI [5] was > 100 µM, the GI50 [6] was 17.3 µM and the TGI [6] was 36.6 µM. For the same molecule, the GI50 [7] was 15.1 µM, the TGI [7] was 52.5 µM and the GI50 [8] was 9.12 µM. The TGI [8] was 25.1 µM, the GI50 [9] was 29.9 µM and the TGI [9] was > 100 µM. It also gave a GI50 [10] of 19.6 µM, a TGI [10] of 41.7 µM and a GI50 [11] of 7.92 µM. The TGI [11] was > 100 µM, the GI50 [12] was 19.2 µM and the TGI [12] was 53.8 µM. The GI50 [13] was 13.8 µM, the TGI [13] was 73.7 µM and the GI50 [14] was 27.7 µM. The TGI [14] was 64.2 µM, the GI50 [15] was 18 µM and the TGI [15] was 46.3 µM. The GI50 [16] was 13.2 µM, the TGI [16] was 28.6 µM and the GI50 [17] was 16.2 µM. The TGI [17] was 48 µM, the GI50 [18] was 11.9 µM and the TGI [18] was 98.7 µM. For the same molecule, the GI50 [19] was 23 µM, the TGI [19] was > 100 µM and the GI50 [20] was 21.8 µM. For the same molecule, the TGI [20] was > 100 µM, the GI50 [21] was 1.81 µM and the TGI [21] was 11.9 µM. The GI50 [22] was 13.2 µM, the TGI [22] was 70.6 µM and the GI50 [23] was 24.7 µM. The TGI [23] was > 100 µM, the GI50 [24] was 26.1 µM and the TGI [24] was > 100 µM. For the same molecule, the GI50 [25] was 29.1 µM, the TGI [25] was > 100 µM and the GI50 [26] was 28.7 µM. For the same molecule, the TGI [26] was > 100 µM, the GI50 [27] was 24.2 µM and the TGI [27] was > 100 µM. The GI50 [28] was 12.1 µM, the TGI [28] was 30.8 µM and the GI50 [29] was 2.84 µM. The TGI [29] was 18.1 µM, the GI50 [30] was 18.4 µM and the TGI [30] was 47.3 µM. For the same molecule, the GI50 [31] was 17.5 µM, the TGI [31] was > 100 µM and the GI50 [32] was 11.4 µM. It also gave a TGI [32] of 30 µM, a GI50 [33] of 10.7 µM and a TGI [33] of 33.5 µM. It also gave a GI50 [34] of 13.3 µM, a TGI [34] of 76.2 µM and a GI50 [35] of 5.9 µM. It also gave a TGI [35] of 25.9 µM, a GI50 [36] of 23.7 µM and a TGI [36] of 69.3 µM. For the same molecule, the GI50 [37] was 11.5 µM, the TGI [37] was 28.2 µM and the GI50 [38] was 13.5 µM. It also gave a TGI [38] of 40.5 µM, a GI50 [39] of 17.8 µM and a TGI [39] of 32.5 µM. For the same molecule, the GI50 [40] was 3.93 µM, the TGI [40] was 35.3 µM and the GI50 [41] was 19.3 µM. The TGI [41] was 37.6 µM, the GI50 [42] was 31.5 µM and the TGI [42] was > 100 µM. The GI50 [43] was 7.79 µM, the TGI [43] was > 100 µM and the GI50 [44] was 17.1 µM. The TGI [44] was > 100 µM, the GI50 [45] was 13 µM and the TGI [45] was 26.3 µM. It also gave a GI50 [46] of 19.4 µM, a TGI [46] of 52.6 µM and a GI50 [47] of 13.9 µM. The TGI [47] was 36.4 µM, the GI50 [48] was 25.1 µM and the TGI [48] was 66.2 µM. For the same molecule, the GI50 [49] was 20.2 µM, the TGI [49] was 69.2 µM and the GI50 [50] was 19.6 µM. For the same molecule, the TGI [50] was 46.6 µM, the GI50 [51] was 11.2 µM and the TGI [51] was 25.7 µM. For the same molecule, the GI50 [52] was 3.73 µM, the TGI [52] was 27.1 µM and the GI50 [53] was 10.8 µM. The TGI [53] was 32 µM, the GI50 [54] was 21.9 µM and the TGI [54] was 67.3 µM. For the same molecule, the GI50 [55] was 23.7 µM, the TGI [55] was 74.1 µM and the GI50 [56] was 0.542 µM. The TGI [56] was 14.2 µM, the GI50 [57] was 10.7 µM and the TGI [57] was 37.5 µM.
